From patent US20250114354A1, “COMBINATION TREATMENT REGIMENS - SMARCA2 DEGRADER WITH PD-1 INHIBITORS” (PRELUDE THERAPEUTICS INCORPORATED, priority 2023, published 2025)
“Also recorded” adds a separate entry of the source.

How the values were obtained:
[1] = system: T cells (human PBMCs co-cultured with SMARCA4 deleted NCI-H1299 cells); test: Flow cytometry of T cell activation markers in co-culture of NCI-H1299 cells and human PBMCs; format: cell-based; conditions: Formula (I) combined with Pembrolizumab, FIG. 1A
Description: Human peripheral blood mononuclear cells (PBMCs) were co-cultured with NCI-H1299 cells (SMARCA4 deleted NSCLC) with Pembrolizumab and/or Formula (I). The cell samples from co-culture were stained for CD3 (T cell marker), CD8 (T cell marker), and CD25 (T cell activation marker) and analyzed by flow cytometry to determine percentages of cells with marker positive populations.
(§1) H1299 (CRL-5803) and H1975 (CRL-5908) were purchased from the American […]. Human Mononuclear Cells (PBMC) (HUMANPBMC-0001989) were purchased from BioIVT. NCI-H1299, NCI-H1975 and all CT26 cells were cultured in RPMI-1640 (ATCC, 30-2001) supplemented with 10% FBS (Gibco, 26140-079) and 1× penicillin-streptomycin (Thermofisher, 15140122). Human Peripheral Bloogd Mononuclear Cells (PBMCs) were cultured in RPMI-1640, 20% FBS, 100U/ml Human Recombinant IL-2 (Gibco, PHC0027) and 1× penicillin-streptomycin. All cells were maintained at 37° C. in 5% CO2 in a humidified incubator.
Samples from co-culture were collected in Eppendorf tubes and 500 ul of PBS was added. The samples were centrifuged (300 g, 5 minutes) to wash. Supernatant was removed and the pellet was resuspended in 200 ul FACS buffer. Samples were placed on ice for 15 minutes to block. After blocking, the samples were centrifuged (300 g, 5 minutes). […]

[2] = system: SMARCA4 deleted A549 cells; test: Incucyte 3D tumor spheroid growth, A549 cells with HLA-matched T cells; format: cell-based, human
Protocol: Green fluorescence protein (GFP) positive A549 cells were cultured with or without HLA-matched T cells and treated with Formula (I) in the spheroid culture system. Representative figures of the 3D cancer cell spheroids were shown.
The data were generated with SMARCA4 deleted A549 cells.
(§2) GFP-tagged tumor cells were seeded in 96 well Ultra-Low Adherence (ULA) plates (Corning, 7007) (2000 cells/well) and centrifuged briefly (300 g, 30 seconds) to induce cell aggregation. The cells were incubated at 37° C. overnight to allow complete aggregation into spheroids. Following the addition of immune cells with treatment of Pembrolizumab (MedChemExpress, HY-P9902) (100 ug/ml) and/or Formula (I) (100 nM). Three-dimensional tumor spheroid growth was monitored using Sartorius' Incucyte® SX1 Live-Cell Analysis.

[3] = system: IFN-gamma, IL-2 and Granzyme B in co-culture of NCI-H1299 cells and human PBMCs; test: Cytokine analysis (MSD U-PLEX) of co-culture supernatant; format: cell-based; conditions: Formula (I) combined with Pembrolizumab; conditioned media; FIG. 1B
Protocol: Supernatant from the co-culture were plated into a 96-well plate and cytokines were analyzed using the MSD U-PLEX Immuno-Oncology Group 1 (Human) kit (MesoScale Discovery, Custom-made kit). Expressions of IFN-gamma, IL-2 and Granzyme B are shown.
as §1
Supernatant from the co-culture were plated into a 96-well plate and cytokines were analyzed using the MSD U-PLEX Immuno-Oncology Group 1 (Human) kit (MesoScale Discovery, Custom-made kit).

[4] = system: SMARCA4 deleted NCI-H1299 cells; test: Incucyte 3D tumor spheroid growth, NCI-H1299 cells with human PBMCs; format: cell-based; conditions: Formula (I) 100 nM with pembrolizumab 100 ug/ml; FIG. 2C
Protocol: (§3) The cells were treated with or without Formula (I) and/or pembrolizumab. The data were generated with SMARCA4 deleted NCI-H1299 and SMARCA4 WT NCI-H1975 cells.
as §2
(§4) H1299 and H1975 cells were seeded (500,000 cells/well) in 6 well Tissue Culture Treated plates (Corning 3516) and allowed to aggregate into tumor spheroids for 1-2 hours. Tumor spheroids were treated with 600 ul of Incucyte® Cytolight Lentivirus (Sartorius, 4481) for a MOI of 3 and 8 ug/ml Polybrene Transfection Reagent (Sigma-Aldrich, TR-1003). The cells were incubated at 37° C. overnight. Following incubation, media was removed and replaced with fresh media. GFP expression was monitored using Sartorius' Incucyte® SX1 Live-Cell Analysis System (9600-0031).

[5] = system: SMARCA4 WT NCI-H1975 cells; test: Incucyte 3D tumor spheroid growth, NCI-H1975 cells with human PBMCs; format: cell-based; conditions: Formula (I) 100 nM with pembrolizumab 100 ug/ml; FIG. 2C
Protocol: as §3, §2, §4

## Cc1ncsc1-c1ccc([C@H](C)NC(=O)[C@@H]2C[C@@H](O)CN2C(=O)[C@@H](c2cc(O[C@@H](C)CN3CC[C@@H](N4CCN5c6cc(-c7ccccc7O)nnc6NC[C@H]5C4)C3)no2)C(C)C)cc1 [Formula (I)]
[1]
  activated (CD25+) CD3+ T cells: increased
  activated (CD25+) CD8+ T cells: increased
[2]; Formula (I) 100 nM in the presence of T cells, quantitated GFP positive cells, FIG. 2A/2B
  T-cell mediated A549 killing: significantly increased; also recorded: promoted
[2]; Formula (I) 100 nM with HLA-matched T cells, FIG. 2A
  growth of A549 cancer cells (GFP positive) in 3D spheroid culture: inhibited growth
[3]
  Gramzyme B level in co-culture supernatant: higher levels
  IFN-g level in co-culture supernatant: higher levels
  IL-2 level in co-culture supernatant: higher levels
[4]
  combination effect on NCI-H1299 spheroids cultured with PBMCs, compared to single agent treated groups: showed more
[5]
  combination effect on NCI-H1975 spheroids cultured with PBMCs: the combination effect was not seen
